In general, ED50 refers to the dose that gives a 50% effect, or the effect in half of the subjects. One may read the LD50 as the dose expected to kill half of the subjects tested.

For data set [1], the system named is Gastric acid secretion. Description: Gastric acid secretion in anesthetized dogs (histamine-induced). As to conditions: Canis lupus familiaris, iv, read-out: (A) Gastric secretion ED50. The class given is in vivo, Mongrel dogs. Here is the method:
(i) Gastric acid secretion in anesthetized dogs: Mongrel dogs weighing 8 to 15 Kg were deprived of food for 24 hr and anesthetized intravenously with pentobarbital (30 mg/Kg). […] The gastric juice was collected from the gastric cannula by gravity drainage every 15 min. Test compounds were given intravenously after gastric secretion induced by a continuous intravenous infusion of histamine (160 μg/Kg-hr) reached a steady state.

Data set [2] is described as follows: Acute toxicity in mice. As to conditions: mouse, in vivo, iv; male ICR mice; i.v.; 7 days observation; up and down method; base; read-out: (C) LD50 in mice. On the procedure:
(iii) Acute toxicity in mice
Drugs were injected intravenously in male ICR mice weighing about 35 g at a rate of 0.1 ml/10 sec and the animals were kept under observation for 7 days. LD50 values were determined by up and down method using 10 animals. The data are shown in Table I, under column entitled (C).

The subject of data set [3] is Gastric acid secretion. Briefly: Gastric acid secretion in pylorus-ligated rats. The class given is in vivo, Male Wister rats. To be noted: Rattus norvegicus, read-out: (B) Pylorus-ligated rats ED50. Here is the method: (ii) Gastric acid secretion in pylorus-ligated rats
Male Wister rats weighing about 200 g were deprived of food for 24 hr but allowed free access to water prior to the experiments in individual cages. […] Test compounds were intraduodenally given immediately after the ligation of pylorus. The animals were sacrificed 4 hr after drug administration and gastric contents were collected. […] The percent inhibition of gastric secretion by each dose of drugs was calculated from the acid outputs of control and of treated groups. ED50 values were determined by the probit method.

Data set [4] has as its system H2 -receptor. As to conditions: isolated guinea pig atrium; effects mediated by the H2 -receptor; Ash and Schild, Black et al.; cited from earlier work.
[5] abbreviates: anesthetized dogs, i.v., histamine infusion 160 μg/Kg-hr, dose producing 50% inhibition of the acid output, base.
[6] abbreviates: pylorus-ligated rats, intraduodenal, 4 hr, probit method, base.

As for `CN/C(=N/CCSCc1nc[nH]c1C)NC#N` [Compound A, Ncyano-Nmethyl-N{2[(4methyl-5-imidazolyl)methylthio]ethyl}guanidine], the results for the ED50 in data set [1] and in data set [3] (4 h) were 0.333 ± 0.042 mg/kg and 42.6 mg/kg, respectively. Further, in data set [2], the 50% lethal dose (LD50) at 168 h amounted to 152 mg/kg.
With `N#CN=C(N)NCCSCc1csc(NC(=N)N)n1` [Compound B, 2guanidino-4-[2(2-cyanoguanidino)ethylthiomethyl]thiazole], the median effective dose (ED50) was determined as 0.0352 ± 0.0022 mg/kg in data set [1] (setting [5]) and 49.3 mg/kg in data set [3] (setting [6]). Besides, the LD50 at 168 h in data set [2] is 94.6 mg/kg.
Consider `NC(N)=Nc1nc(CSCCC(N)=NS(N)(=O)=O)cs1` [Example 1, N-sulfamoyl-3-[(2-guanidinothiazol-4-yl)methylthio]propionamidine], for which the ED50 turned out to be 0.0087 ± 0.0005 mg/kg in data set [1] (setting [5]) and 0.87 mg/kg in data set [3] (setting [6]). Besides, the LD50 at 168 h in data set [2] was 244 mg/kg.
For `CS(=O)(=O)NC(=N)CCSCc1csc(NC(=N)N)n1` [Example 2, N-methanesulfonyl-3-[(2-guanidinothiazol-4-yl)-methylthio]propionamidine], the values for the ED50 in data set [1] (setting [5]) and in data set [3] (setting [6]) were 0.0191 ± 0.0026 mg/kg and 8.9 mg/kg, respectively. Also, the LD50 at 168 h in data set [2] came out at 152 mg/kg.
With `COc1ccc(CN(CCN(C)C)c2ccccn2)cc1` [mepyramine], the “inhibition of histamine effects on gastric acid secretion and heart rate” value in data set [4] is “not inhibited”.
As to `C/N=C(\S)NCCSCc1[nH]cnc1C` [metiamide], in data set [4], the “inhibition of histamine effects on gastric acid secretion and heart rate” value is on record as “antagonized”.
